Measured values as given in ChEMBL document CHEMBL5390237, “Discovery of Selective Histone Deacetylase 1 and 2 Inhibitors: Screening of a Focused Library Constructed by Click Chemistry, Kinetic Binding Analysis, and Biological Evaluation” (J Med Chem, 2023).
The source made the active and inactive calls. The calls are words filed in the database; no cut-off is given here.

Tests used:
[1] = Cytotoxicity against human HMEC cells assessed as inhibition of cell viability incubated for 3 days by AlamarBlue based fluorescence analysis
MCF7 [2] = assay: Upregulation of TP53INP1 gene expression in human MCF7 cells at 2 uM incubated for 24 hrs by RT-qPCR analysis; type: functional, cell-based
Histone deacetylase 8 = biological target: T1, Histone deacetylase 8 (Homo sapiens, UniProt Q9BY41); assay: Inhibition of full-length recombinant human C-terminal His-tagged HDAC8 expressed in Sf9 insect cells using aminoluciferin peptide substrate preincubated for 3 hrs followed by substrate addition and measured after 30 mins by HDAC-Glo I/II chemiluminescence assay
T1 sequence (Q9BY41 whole entry): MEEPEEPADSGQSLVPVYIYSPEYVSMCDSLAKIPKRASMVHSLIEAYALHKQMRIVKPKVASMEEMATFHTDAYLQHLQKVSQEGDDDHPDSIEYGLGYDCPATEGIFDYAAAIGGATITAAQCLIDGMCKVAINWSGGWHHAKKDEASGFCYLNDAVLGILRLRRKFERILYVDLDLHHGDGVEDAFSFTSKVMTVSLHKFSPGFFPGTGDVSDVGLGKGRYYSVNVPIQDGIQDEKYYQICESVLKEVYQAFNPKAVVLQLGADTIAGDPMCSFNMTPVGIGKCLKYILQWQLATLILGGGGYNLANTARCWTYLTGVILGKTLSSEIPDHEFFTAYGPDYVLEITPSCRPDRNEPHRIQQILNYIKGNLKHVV

MCF7 [3] = assay: Downregulation of E2F1 gene expression in human MCF7 cells at 2 uM incubated for 24 hrs by microarray analysis; type: functional, cell-based
Histone deacetylase 1 = Histone deacetylase 1 (Homo sapiens, UniProt Q13547); assay: Inhibition of full-length recombinant human C-terminal GST tagged HDAC1 expressed in Sf9 insect cells using aminoluciferin peptide substrate at 10 to 100 nM preincubated for 3 hrs followed by substrate addition and measured after 30 mins by HDAC-Glo I/II chemiluminescence assay; details: dose 10-100 nM, time 3.5 hrs
Chain of Histone deacetylase 1 (Q13547 whole entry): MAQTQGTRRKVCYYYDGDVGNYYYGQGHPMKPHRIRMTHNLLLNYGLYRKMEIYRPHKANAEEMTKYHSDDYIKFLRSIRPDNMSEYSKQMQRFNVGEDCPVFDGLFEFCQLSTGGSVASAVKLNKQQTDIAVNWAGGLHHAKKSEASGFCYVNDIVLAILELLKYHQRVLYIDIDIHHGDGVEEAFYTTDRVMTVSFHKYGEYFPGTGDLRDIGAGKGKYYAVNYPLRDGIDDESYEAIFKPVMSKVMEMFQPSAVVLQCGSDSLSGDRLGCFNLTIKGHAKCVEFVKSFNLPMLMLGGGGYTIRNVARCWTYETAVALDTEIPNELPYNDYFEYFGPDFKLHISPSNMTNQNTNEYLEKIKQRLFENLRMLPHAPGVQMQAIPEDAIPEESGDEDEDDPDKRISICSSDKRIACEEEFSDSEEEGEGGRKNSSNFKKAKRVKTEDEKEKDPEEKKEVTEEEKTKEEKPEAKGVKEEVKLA

[4] = biological target: T2, Histone deacetylase (Homo sapiens) (UniProt Q13547+O15379+Q9UBN7+Q92769+Q9UQL6+Q8WUI4+Q9BY41+Q96DB2+P56524+Q9UKV0+Q969S8); details: MCF7, dose 1.0 µM, time <= 48.0 hrs
Histone deacetylase 2 [5] = biological target: T3, Histone deacetylase 2 (Homo sapiens, UniProt Q92769); assay: Inhibition of full-length recombinant human C-terminal GST tagged HDAC2 expressed in Sf9 insect cells using aminoluciferin peptide substrate preincubated for 3 hrs followed by substrate addition and measured after 30 mins by HDAC-Glo I/II chemiluminescence assay; type: cell-based
T3 sequence (Q92769 whole entry): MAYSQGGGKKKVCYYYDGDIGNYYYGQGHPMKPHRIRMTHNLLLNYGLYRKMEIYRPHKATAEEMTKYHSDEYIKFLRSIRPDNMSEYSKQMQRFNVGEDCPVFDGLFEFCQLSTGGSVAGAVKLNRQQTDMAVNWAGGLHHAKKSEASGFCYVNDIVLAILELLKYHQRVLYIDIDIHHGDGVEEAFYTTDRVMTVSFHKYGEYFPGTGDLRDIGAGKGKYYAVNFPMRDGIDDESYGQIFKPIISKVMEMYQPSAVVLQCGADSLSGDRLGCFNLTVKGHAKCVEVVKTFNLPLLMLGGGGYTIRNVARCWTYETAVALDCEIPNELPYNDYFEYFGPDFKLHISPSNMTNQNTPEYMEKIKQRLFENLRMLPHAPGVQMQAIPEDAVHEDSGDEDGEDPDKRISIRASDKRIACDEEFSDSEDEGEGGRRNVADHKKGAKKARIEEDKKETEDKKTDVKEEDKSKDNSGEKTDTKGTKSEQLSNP

[6] = biological target: Histone deacetylase 9 (Homo sapiens) (UniProt Q9UKV0); assay: Inhibition of recombinant human HDAC9 using fluorogenic substrate preincubated for 3 hrs followed by substrate addition and measured after 30 mins by fluorescence analysis; details: time 3.5 hrs
Chain of Histone deacetylase 9 (Homo sapiens) (Q9UKV0 whole entry): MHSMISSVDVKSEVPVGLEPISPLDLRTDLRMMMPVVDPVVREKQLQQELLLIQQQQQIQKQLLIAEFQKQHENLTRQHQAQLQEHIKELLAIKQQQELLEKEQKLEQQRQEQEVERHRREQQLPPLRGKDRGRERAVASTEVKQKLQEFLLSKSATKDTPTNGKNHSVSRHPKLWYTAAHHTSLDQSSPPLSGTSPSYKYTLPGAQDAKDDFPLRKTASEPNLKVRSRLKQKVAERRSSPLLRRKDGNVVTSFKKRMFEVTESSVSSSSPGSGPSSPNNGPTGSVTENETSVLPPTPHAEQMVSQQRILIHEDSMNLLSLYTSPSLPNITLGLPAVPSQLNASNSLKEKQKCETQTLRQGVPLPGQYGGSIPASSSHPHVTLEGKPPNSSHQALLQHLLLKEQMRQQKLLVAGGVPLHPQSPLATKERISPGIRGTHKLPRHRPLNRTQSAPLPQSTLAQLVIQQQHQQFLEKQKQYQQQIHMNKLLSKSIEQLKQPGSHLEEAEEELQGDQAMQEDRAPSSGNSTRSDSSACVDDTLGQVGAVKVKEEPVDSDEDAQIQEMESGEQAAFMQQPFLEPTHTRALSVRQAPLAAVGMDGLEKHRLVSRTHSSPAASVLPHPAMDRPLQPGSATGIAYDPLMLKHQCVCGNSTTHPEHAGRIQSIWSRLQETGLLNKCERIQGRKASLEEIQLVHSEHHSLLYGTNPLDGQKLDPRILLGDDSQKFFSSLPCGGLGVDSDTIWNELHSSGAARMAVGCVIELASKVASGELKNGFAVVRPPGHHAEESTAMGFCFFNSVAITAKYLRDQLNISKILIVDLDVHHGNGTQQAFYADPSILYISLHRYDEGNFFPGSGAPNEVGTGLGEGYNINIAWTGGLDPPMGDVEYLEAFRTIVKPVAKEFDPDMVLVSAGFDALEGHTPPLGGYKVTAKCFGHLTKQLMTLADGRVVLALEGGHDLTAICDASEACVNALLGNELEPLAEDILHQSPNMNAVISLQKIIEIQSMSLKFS

[7] = biological target: T4, Protein deacetylase HDAC6 (Homo sapiens) (UniProt Q9UBN7); assay: Inhibition of full-length recombinant human C-terminal GST tagged HDAC6 expressed in Sf9 insect cells using aminoluciferin peptide substrate preincubated for 3 hrs followed by substrate addition and measured after 30 mins by HDAC-Glo I/II chemiluminescence assay; details: time 3.5 hrs
T4 sequence (whole entry): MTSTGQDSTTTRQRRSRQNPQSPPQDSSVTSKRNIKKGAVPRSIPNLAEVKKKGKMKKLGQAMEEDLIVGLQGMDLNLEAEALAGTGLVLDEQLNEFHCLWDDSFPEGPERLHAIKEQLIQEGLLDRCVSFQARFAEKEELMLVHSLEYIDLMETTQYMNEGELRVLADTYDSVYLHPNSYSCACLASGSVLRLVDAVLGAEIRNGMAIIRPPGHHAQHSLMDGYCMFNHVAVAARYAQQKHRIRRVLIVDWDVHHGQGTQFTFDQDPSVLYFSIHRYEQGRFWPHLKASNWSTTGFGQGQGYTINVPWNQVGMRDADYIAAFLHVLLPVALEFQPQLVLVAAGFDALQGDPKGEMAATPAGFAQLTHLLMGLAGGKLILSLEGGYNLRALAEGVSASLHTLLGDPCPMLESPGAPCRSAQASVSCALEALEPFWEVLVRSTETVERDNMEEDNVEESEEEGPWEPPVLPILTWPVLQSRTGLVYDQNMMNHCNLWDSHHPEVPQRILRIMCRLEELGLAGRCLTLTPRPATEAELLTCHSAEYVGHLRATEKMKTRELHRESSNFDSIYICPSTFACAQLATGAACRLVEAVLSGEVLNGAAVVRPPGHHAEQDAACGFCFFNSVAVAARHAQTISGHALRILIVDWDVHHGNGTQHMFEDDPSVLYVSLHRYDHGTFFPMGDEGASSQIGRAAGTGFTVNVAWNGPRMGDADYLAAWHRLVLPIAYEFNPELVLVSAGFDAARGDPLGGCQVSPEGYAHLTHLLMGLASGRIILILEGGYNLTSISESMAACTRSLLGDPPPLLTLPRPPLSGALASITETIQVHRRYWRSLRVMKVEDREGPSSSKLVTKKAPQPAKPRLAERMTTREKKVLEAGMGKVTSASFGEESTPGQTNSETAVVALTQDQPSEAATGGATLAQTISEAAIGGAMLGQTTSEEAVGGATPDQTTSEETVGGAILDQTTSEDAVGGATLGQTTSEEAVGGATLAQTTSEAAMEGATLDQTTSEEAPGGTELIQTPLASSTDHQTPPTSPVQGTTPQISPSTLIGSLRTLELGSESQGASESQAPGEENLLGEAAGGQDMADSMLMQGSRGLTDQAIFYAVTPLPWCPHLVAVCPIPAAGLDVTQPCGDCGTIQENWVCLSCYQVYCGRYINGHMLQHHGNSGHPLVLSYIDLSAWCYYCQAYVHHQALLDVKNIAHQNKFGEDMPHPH

[8] = biological target: T2, Histone deacetylase (Homo sapiens); details: MCF7, dose 10.0 µM, time <= 48.0 hrs
MCF7 [9] = assay: Upregulation of GADD45A gene expression in human MCF7 cells at 2 uM incubated for 24 hrs by RT-qPCR analysis; type: functional, cell-based
Histone deacetylase 2 [10] = biological target: T3, Histone deacetylase 2; details: Sf9, dose 30-100 nM, time 3.5 hrs
MCF7 [11] = assay: cells; type: functional; details: Homo sapiens, time 48 hrs
Description: Anticancer activity against human MCF7 cells overexpressing HDAC1 and HDAC2 assessed as inhibition of cell growth incubated for 48 hrs by sulforhodamine B assay

MCF7 [12] = assay: Upregulation of ERRF1 gene expression in human MCF7 cells at 2 uM incubated for 24 hrs by RT-qPCR analysis; type: functional, cell-based
MCF7 [13] = assay: Upregulation of DDIT4 gene expression in human MCF7 cells at 2 uM incubated for 24 hrs by RT-qPCR analysis; type: functional, cell-based
MCF7 [14] = assay: Upregulation of TES gene expression in human MCF7 cells at 2 uM incubated for 24 hrs by RT-qPCR analysis; type: functional, cell-based
MCF7 [15] = assay: Downregulation of E2F7 gene expression in human MCF7 cells at 2 uM incubated for 24 hrs by microarray analysis; type: functional, cell-based

| IC50 (Histone deacetylase 8) [µM] | inhibition (Histone deacetylase 1) | TDI [4] | IC50 (Histone deacetylase 2 [5]) [µM] | inhibition [6] | inhibition [7] | TDI [8] | inhibition (Histone deacetylase 2 [10]) | GI50 (MCF7 [11]) [µM] | Structure (SMILES) | IC50 at 3 days [1] [µM] | Activity (MCF7 [2]) | Activity (MCF7 [3]) | Activity (MCF7 [9]) | Activity (MCF7 [12]) | Activity (MCF7 [13]) | Activity (MCF7 [14]) | Activity (MCF7 [15]) |
| --- | --- | --- | --- | --- | --- | --- | --- | --- | --- | --- | --- | --- | --- | --- | --- | --- | --- |
| > 10 | Active | Active | 0.017 | inactive | inactive | Active | Dose-Dependent Effect | 52.5 | Nc1ccc(-c2cccs2)cc1NC(=O)c1ccc(-c2cn(CCc3ccccn3)nn2)cc1 | 4.35 | Active | Active | Active | Active | Active | Active | Active |
| > 10 | Active | Active | 0.068 | inactive | inactive | Active | Dose-Dependent Effect | 0.043 | Nc1ccc(-c2cccs2)cc1NC(=O)c1ccc(-c2cn(CS(=O)(=O)c3ccccc3)nn2)cc1 | 9.85 | Active | Active | Active | Active | Active | Active | Active |
| 4.45 | Active | Active | 0.019 | inactive | inactive | Active | Dose-Dependent Effect | 1.86 | Nc1ccc(-c2cccs2)cc1NC(=O)c1ccc(-c2cn(C[S+]([O-])c3ccccc3)nn2)cc1 (stereo unspecified) | > 10 | Active | Active | Active | Active | Active | Active | Active |
